Here are results for 19 molecules from patent US10954252B1, “Inhibitors of human immunodeficiency virus replication” (ViiV HEALTHCARE UK (NO.5) LIMITED, priority 2017, dated 2021).

Molecules are shown by their SMILES.

A word on the EC50: it is the midpoint of the concentration-response curve. In general, CC50 refers to the concentration that lowers cell viability or growth by half. High values mean better tolerance by the cells, low ones harm at low concentration.

Data set [1] concerns recombinant NL4-3 virus (nef section replaced with Renilla luciferase gene) in MT-2 cells. Put plainly: HIV cell culture assay (antiviral activity, luciferase readout). The settings on record: MT-2 cells infected for 4-5 days with recombinant NL4-3 luciferase virus. It is filed as cell-based. Here is the method:
HIV cell culture assay—MT-2 cells, 293T cells and the proviral DNA clone of NL4-3 virus were obtained from the NIH AIDS Research and Reference Reagent Program. MT-2 cells were propagated in RPMI 1640 media supplemented with 10% heat inactivated fetal bovine serum (FBS), 100 μg/ml penicillin G and up to 100 units/mL streptomycin. The 293T cells were propagated in DMEM media supplemented with 10% heat inactivated FBS, 100 μg/mL penicillin G and 100 μg/mL streptomycin. A recombinant NL4-3 proviral clone, in which a section of the nef gene was replaced with the Renilla luciferase gene, was used to make the reference virus used in these studies. The recombinant virus was prepared through transfection of the recombinant NL4-3 proviral clone into 293T cells using Transit-293 Transfection Reagent from Mirus Bio LLC (Madison, Wis.). Supernatent was harvested after 2-3 days and the amount of virus present was titered in MT-2 cells using luciferase enzyme activity as a marker by measuring luciferase enzyme activity. Luciferase was quantitated using the EnduRen Live Cell Substrate from Promega (Madison, Wis.). Antiviral activities of compounds toward the recombinant virus were quantified by measuring luciferase activity in MT-2 cells infected for 4-5 days with the recombinant virus in the presence of serial dilutions of the compound.
The 50% effective concentration (ECs) was calculated by using the exponential form of the median effect equation where (Fa)=1/[1+(ED50/drug conc.)^m] (Johnson Va., Byington RT. Infectivity Assay. In Techniques in HIV Research. ed. Aldovini A, Walker BD. 71-76. New York: Stockton Press. 1990).

Data set [2] in a line: Compound cytotoxicity, XTT-based colorimetric assay. The settings on record: human, uninfected MT2 cells. It is filed as cell-based. Here is the method:
Compound cytotoxicity and the corresponding CC50 values were determined using the same protocol as described in the antiviral assay except that uninfected cells were used. Cytotoxicity was assessed on day 4 in uninfected MT2 cells by using a XTT (2,3-bis[2-Methoxy-4-nitro-5-sulfophenyl]-2H-tetrazolium-5-carboxyanilide inner salt)-based colorimetric assay (Sigma-Aldrich, St Louis, Mo.). Biological data for select compounds of the invention are contained in Table 1 and Table 1a
On the technique in general: Formazan colour is commonly taken as a measure of viable cells.

`Cc1nc2nc(C(Cc3cc(F)cc(F)c3)NC(=O)Cn3nc(C(F)F)c4c3C(F)(F)[C@@H]3C[C@H]43)c(-c3ccc(Cl)c4c(NS(C)(=O)=O)nn(C)c34)cc2s1` (single isomer, unassigned) [Example 2.1]: the concentration for a half-maximal effect (EC50) in data set [1] (Table 1) is 0.1 nM. Besides, the CC50 at 4 days in data set [2] (Table 1, day 4, XTT) is above 10000 nM.
For the molecule `Cn1nc(NS(C)(=O)=O)c2c(Cl)ccc(-n3c([C@H](Cc4cc(F)cc(F)c4)NC(=O)Cn4nc(C(F)F)c5c4C(F)(F)[C@@H]4C[C@H]54)nc4cc(C#N)ccc4c3=O)c21` (mixture of isomers) [Example 166, N—((S)-1-(3-(4-chloro-1-methyl-3-(methylsulfonamido)-1H-indazol-7-yl)-7-cyano-4-oxo-3,4-dihydroquinazolin-2-yl)-2-(3,5-difluorophenyl)ethyl)-2-((3bS,4aR)-3-(difluoromethyl)-5,5-difluoro-3b,4,4a,5-tetrahydro-1H-cyclopropa[3,4]cyclopenta[1,2-c]pyrazol-1-yl)acetamide], the EC50 in data set [1] (Renilla, NL43, Table 1a) turned out to be 26 nM. The molecule also came in with a CC50 at 4 days in data set [2] (Table 1a, day 4, XTT) above 1000 nM.
With `CC(C)c1ccc(-n2c([C@H](Cc3cc(F)cc(F)c3)NC(=O)Cc3c[nH]c4ccc(O)cc34)nc3cc(C#N)ccc3c2=O)cn1` [Example 162, (S)—N-(1-(7-cyano-3-(6-isopropylpyridin-3-yl)-4-oxo-3,4-dihydroquinazolin-2-yl)-2-(3,5-difluorophenyl)ethyl)-2-(5-hydroxy-1H-indol-3-yl)acetamide], in data set [1] (Renilla, NL43, Table 1a), the half-maximal effective concentration (EC50) came out at 6.56 nM. For the same molecule, the CC50 at 4 days in data set [2] (Table 1a, day 4, XTT) is above 10000 nM.
Regarding `Cn1nc(NS(C)(=O)=O)c2c(Cl)ccc(-c3cc4[nH]ncc4nc3[C@H](Cc3cc(F)cc(F)c3)NC(=O)Cc3c[nH]c4ccc(O)cc34)c21` [Example 10.22], the concentration giving a half-maximal response (EC50) in data set [1] (Renilla, NL43, Table 1) is 22 nM. In data set [2] (Table 1, day 4, XTT), this molecule yielded a CC50 at 4 days above 10000 nM.
For `O=C(Cn1nc(C(F)F)c2c1C(F)(F)[C@@H]1C[C@H]21)N[C@@H](Cc1cc(F)cc(F)c1)c1nc2ncccc2c(=O)n1-c1ccc(OC(F)F)cc1` [Example 30, N-[(1S)-1-{3-[4-(difluoromethoxy)phenyl]-4-oxo-3H,4H-pyrido[2,3-d]pyrimidin-2-yl}-2-(3,5-difluorophenyl)ethyl]-2-[(2S,4R)-9-(difluoromethyl)-5,5-difluoro-7,8-diazatricyclo[4.3.0.0^2,4]nona-1(6),8-dien-7-yl]acetamide], the EC50 in data set [1] (Renilla, NL43, Table 1a) came to 5.03 nM. This molecule had a CC50 at 4 days in data set [2] (Table 1a, day 4, XTT) of 3160 nM.
Consider `O=C(Cc1c[nH]c2ccc(O)cc12)N[C@@H](Cc1cc(F)cc(F)c1)c1nc2ncccc2c(=O)n1-c1ccc2scnc2c1` [Example 10.23], for which, in data set [1] (Renilla, NL43, Table 1), the EC50 was 2.7 nM. This molecule yielded a half-maximal cytotoxic concentration (CC50) at 4 days in data set [2] (Table 1, day 4, XTT) above 10000 nM.
With `CC(C)S(=O)(=O)NC(=O)c1cc(-c2cc3[nH]ncc3nc2[C@H](Cc2cc(F)cc(F)c2)NC(=O)Cn2nc(C(F)F)c3c2C(F)(F)[C@@H]2C[C@H]32)ccc1Cl` [Example 10.19, 2-chloro-5-(5-((S)-1-(2-((3bS,4aR)-3-(difluoromethyl)-5,5-difluoro-3b,4,4a,5-tetrahydro-1H-cyclopropa[3,4]cyclopenta[1,2-c]pyrazol-1-yl)acetamido)-2-(3,5-difluorophenyl)ethyl)-1H-pyrazolo[4,3-b]pyridin-6-yl)-N-(isopropylsulfonyl)benzamide], the EC50 in data set [1] (Renilla, NL43, Table 1) was 220 nM. Moreover, the CC50 at 4 days in data set [2] (Table 1, day 4, XTT) was above 10000 nM.
Consider `O=C(Cn1nc(C(F)F)c2c1C(F)(F)[C@@H]1C[C@H]21)N[C@@H](Cc1cc(F)cc(F)c1)c1nc2ccccc2nc1-c1ccc2c(c1)C(=O)NC2` [Example 157, 2-((3bS,4aR)-3-(difluoromethyl)-5,5-difluoro-3b,4,4a,5-tetrahydro-1H-cyclopropa[3,4]cyclopenta[1,2-c]pyrazol-1-yl)-N—((S)-2-(3,5-difluorophenyl)-1-(3-(3-oxoisoindolin-5-yl)quinoxalin-2-yl)ethyl)acetamide], for which, in data set [1] (Renilla, NL43, Table 1a), the half-maximal effective concentration (EC50) turned out to be 10.4 nM. In addition, the CC50 at 4 days in data set [2] (Table 1a, day 4, XTT) is above 10000 nM.
For the molecule `Cn1nc(NS(C)(=O)=O)c2c(Cl)ccc(-c3cc4[nH]cnc4nc3C(Cc3cc(F)cc(F)c3)NC(=O)Cn3nc(C(F)F)c4c3C(F)(F)[C@@H]3C[C@H]43)c21` (single isomer, unassigned) [Example 4.1], the EC50 in data set [1] (Table 1) turned out to be 230 nM. Also, the CC50 at 4 days in data set [2] (Table 1, day 4, XTT) was above 10000 nM.
For the molecule `Cn1nc(NS(C)(=O)=O)c2c(Cl)ccc(-n3c([C@H](Cc4cc(F)cc(F)c4)NC(=O)Cn4ccc(C5CC5)n4)nc4cccc(F)c4c3=O)c21` (single isomer, unassigned) [Example 183], in data set [1] (Table 1a), the EC50 stood at 21.5 nM. The molecule also gave a half-maximal cytotoxic concentration (CC50) at 4 days in data set [2] (Table 1a, day 4, XTT) above 1000 nM.
On to `CN(C)S(=O)(=O)c1ccc(-n2c([C@H](Cc3cc(F)cc(F)c3)NC(=O)Cn3nc(C(F)F)c4c3C(F)(F)[C@@H]3C[C@H]43)nc3ncccc3c2=O)cc1` [Example 32, 2-[(2S,4R)-9-(difluoromethyl)-5,5-difluoro-7,8-diazatricyclo[4.3.0.0^2,4]nona-1(6),8-dien-7-yl]-N-[(1S)-2-(3,5-difluorophenyl)-1-{3-[4-(dimethylsulfamoyl)phenyl]-4-oxo-3H,4H-pyrido[2,3-d]pyrimidin-2-yl}ethyl]acetamide], for which, in data set [1] (Renilla, NL43, Table 1a), the EC50 worked out at 1.1 nM. Also, in data set [2] (Table 1a, day 4, XTT), the cytotoxic concentration (CC50) at 4 days was above 10000 nM.
Turning to `CC(C)c1ccc(-c2cc3[nH]ccc3nc2[C@@H](Cc2cc(F)cc(F)c2)NC(=O)Cn2nc(C(F)F)c3c2C(F)(F)[C@@H]2C[C@H]32)cn1` [Example 85, 2-((3bS,4aR)-3-(difluoromethyl)-5,5-difluoro-3b,4,4a,5-tetrahydro-1H-cyclopropa[3,4]cyclopenta[1,2-c]pyrazol-1-yl)-N—((R)-2-(3,5-difluorophenyl)-1-(6-(6-isopropylpyridin-3-yl)-1H-pyrrolo[3,2-b]pyridin-5-yl)ethyl)acetamide], in data set [1] (Renilla, NL43, Table 1a), the EC50 came out at 299 nM. Further, the CC50 at 4 days in data set [2] (Table 1a, day 4, XTT) is above 3160 nM.
Consider `Cc1cc(C)c2c(=O)n(-c3ccc(Cl)c4c(NS(C)(=O)=O)nn(C)c34)c(C(Cc3cc(F)cc(F)c3)NC(=O)Cn3nc(C(F)F)c4c3C(F)(F)[C@@H]3C[C@H]43)nc2n1` (mixture of isomers) [Example 42.1], for which, in data set [1] (Renilla, NL43, Table 1a), the EC50 worked out at 12 nM. In data set [2] (Table 1a, day 4, XTT), this molecule came in with a CC50 at 4 days above 10000 nM.
As to `Cn1nc(NS(C)(=O)=O)c2c(Cl)ccc(-n3c([C@H](Cc4cc(F)cc(F)c4)NC(=O)Cn4ccc(C5CC5)n4)nc4ncccc4c3=O)c21` [Example 15, (S)—N-(1-(3-(4-chloro-1-methyl-3-(methylsulfonamido)-1H-indazol-7-yl)-4-oxo-3,4-dihydropyrido[2,3-d]pyrimidin-2-yl)-2-(3,5-difluorophenyl)ethyl)-2-(3-cyclopropyl-1H-pyrazol-1-yl)acetamide], in data set [1] (Renilla, NL43, Table 1), the EC50 was 320 nM. For the same molecule, the CC50 at 4 days in data set [2] (Table 1, day 4, XTT) is above 1000 nM.
With `COc1ccc2c(=O)n(-c3ccc(Cl)c4c(NS(=O)(=O)C5CC5)nn(CC(F)F)c34)c([C@H](Cc3cc(F)cc(F)c3)NC(=O)Cn3nc(C(F)F)c4c3C(F)(F)[C@@H]3C[C@H]43)nc2c1` (single isomer, unassigned) [Example 192], in data set [1] (Renilla, NL43, Table 1a), the EC50 amounted to 0.04 nM. In addition, the CC50 at 4 days in data set [2] (Table 1a, day 4, XTT) is above 1000 nM.
In the case of `O=C(Cn1nc(C(F)F)c2c1C(F)(F)[C@@H]1C[C@H]21)N[C@@H](Cc1cc(F)cc(F)c1)c1nc2cn[nH]c2cc1-c1ccc(F)c(C(=O)NS(=O)(=O)C2CC2)c1` [Example 10.28, N-(cyclopropylsulfonyl)-5-(5-((S)-1-(2-((3bS,4aR)-3-(difluoromethyl)-5,5-difluoro-3b,4,4a,5-tetrahydro-1H-cyclopropa[3,4]cyclopenta[1,2-c]pyrazol-1-yl)acetamido)-2-(3,5-difluorophenyl)ethyl)-1H-pyrazolo[4,3-b]pyridin-6-yl)-2-fluorobenzamide], the half-maximal effective concentration (EC50) in data set [1] (Renilla, NL43, Table 1) came out at 510 nM. For the same molecule, the CC50 at 4 days in data set [2] (Table 1, day 4, XTT) is above 10000 nM.
With `COc1c(F)cc2c(=O)n(-c3ccc(Cl)c4c(NS(C)(=O)=O)nn(C)c34)c(C(Cc3cc(F)cc(F)c3)NC(=O)Cn3nc(C(F)F)c4c3C(F)(F)[C@@H]3C[C@H]43)nc2c1F` (some centres unmarked) [Example 113], the 50% effective concentration (EC50) in data set [1] (Renilla, NL43, Table 1a) worked out at 8.43 nM. For the same molecule, the CC50 at 4 days in data set [2] (Table 1a, day 4, XTT) was above 1000 nM.
As to `O=C(Cn1nc(C(F)F)c2c1C(F)(F)[C@@H]1C[C@H]21)NC(Cc1cc(F)cc(F)c1)c1nc2cn[nH]c2cc1-c1ccc(C2CC2)cc1` (single isomer, unassigned) [Example 3.11], the concentration giving a half-maximal response (EC50) in data set [1] (Renilla, NL43, Table 1) was determined as 670 nM. Moreover, in data set [2] (Table 1, day 4, XTT), the cytotoxic concentration (CC50) at 4 days came to 4200 nM.
Regarding `CC(C)c1ccc(-n2c([C@H](Cc3cc(F)cc(F)c3)NC(=O)Cn3nc(C(F)F)c4c3C(F)(F)[C@@H]3C[C@H]43)nc3ncccc3c2=O)cc1` [Example 35, 2-[(2S,4R)-9-(difluoromethyl)-5,5-difluoro-7,8-diazatricyclo[4.3.0.0^2,4]nona-1(6),8-dien-7-yl]-N-[(1S)-2-(3,5-difluorophenyl)-1-{4-oxo-3-[4-(propan-2-yl)phenyl]-3H,4H-pyrido[2,3-d]pyrimidin-2-yl}ethyl]acetamide], the EC50 in data set [1] (Renilla, NL43, Table 1a) was 16.3 nM. In data set [2] (Table 1a, day 4, XTT), this molecule registered a cytotoxic concentration (CC50) at 4 days of 1580 nM.
